Consider two molecules from patent US20030138856A1, “Process for the measurement of dinophysistoxin and yessotoxin” (priority 2000, published 2003).

Structures are written as SMILES.

In the assay the test system is E-cadherin and related antigens ECRA100 and ECRA135 in MCF-7 cells. Description: E-cadherin, ECRA135 and ECRA100 levels in cytosoluble extracts of toxin-treated MCF-7 cells (SDS-PAGE, anti-E-cadherin immunoblotting, densitometry). The format is cell-based, human. The note with it: for pattern of E-cadherin and related antigens on immunoblot (FIG. 1): 50 nM each agent, 18 hr at 37° C.; for concentration above which the pattern characteristic for each group of toxins is maintained when the two groups are present at the same time: both toxins together in the cell culture. Here is the method: The MCF-7 cell line employed in these experiments has been obtained from the European Collection of Cell Cultures (ECACC No: 86012803; CB No: CB2705). Cells have been maintained at 37° C. in an atmosphere containing 5% CO2 in Petri dishes, in a culture medium composed of Dulbecco's modified MEM, containing foetal bovine serum (10%), nonessential aminoacids (1%) and 2 mM glutamine. Cell treatments have been carried out by adding appropriate aliquots of toxins from stock solutions prepared with absolute ethanol, and control cultures received an identical volume of vehicle. Working solutions of the different agents were obtained by serial dilutions of stock solutions, represented by 50 μM okadaic acid and 500 μM yessotoxin, respectively, and were stored at −20° C., in glass vials, protected from light. The ethanol concentrations in culture media has never been higher than 0.5% (v/v), which represents a concentration uncapable to affect the molecular parameters measured in these experiments.
The cellular extracts employed in the present analyses have been obtained from the cells adhering to culture vessels at the end of the indicated treatments, and the procedure was carried out at 4° C. Cells were washed three times with 20 mM phosphate buffer, pH 7.4, containing 0.15 M NaCl (PBS) and were then lysed by the addition of 25 μl of lysis buffer/cm^2 of culture surface area, and by keeping cells in contact with this solution for 10 minutes at 4° C. The lysis buffer was composed of PBS, containing: 0.5% (w/v) Na deoxycholate, 0.1% (w/v) Na dodecylsulfate (SDS), 1% (v/v) Triton X-100, 0.1 mg/ml phenylmethyl sulfonyl fluoride (PMSF). Cellular lysates were then centrifuged for 30 minutes at 16000 xg, and the supernatants of this centrifugation (cytosoluble extracts) were recovered and used to measure their total protein content by a […] method, using bicinchoninic acid (Smith P. K et al., 1985, Anal. Biochem., 150:76). Cytosoluble extracts were then brought to a final 2% SDS, 5% β-mercaptoethanol and 20% glycerol concentration, and were treated for 5 min at 100° C., before being used for protein fractionation by electrophoresis.
Samples, usually containing the same amount of protein, corresponding to about 50 μg, were subjected to polyacrylamide gel electrophoresis in the presence of SDS, according to the procedure by Laemmli (Laemmli U. K. , 1970, Nature, 227:680), using separating gels containing 10% acrylamide monomer. At the end of the electrophoresis (running time about 3 hr at 170 Volts), proteins were electrophoretically transferred to a nitrocellulose membrane (Protran B83), and were then stained with Ponceau S.
Aspecific binding sites on the membrane were then saturated by a 1 hr incubation at room temperature with a solution composed of 20 mM Tris-HCl, pH 7.5 at 25° C., 150 mM NaCl (TBS), containing 3% (w/v) low fat dry milk and 1 mM CaCl2. The membrane was then incubated with TBS containing 1 % (w/v) low fat dry milk, 1 mM CaCl2, and 2 μg of anti-E-cadherin antibody/ml buffer, for 1 hr at room temperature. At the end of the incubation the membrane was washed four times for 5 min and then a fifth time for 10 min with TBS containing 0.05% (w/v) Tween 20 (TBS-Tween buffer). The membrane was then incubated with TBS-Tween containing 1% (w/v) low fat dry milk and secondary antibody (horse radish peroxydase conjugated anti-mouse Ig antibody) at a 1:3000 dilution, for 1 hr at room temperature. At the end of this incubation, the membrane was washed as previously described, and the antigens were then detected by the ECL procedure and autoradiography, using Kodak X-Omat films. The electropherogram was then subjected to densitometric scanning, and the absorbance measured from the peak area was recorded and used to quantify the detected antigens. […]
Background: Immunoblotting shows a protein as a band on a membrane.

Where [1] appears, read: MCF-7 cells treated with 50 nM OA.
The mark [2] stands for this setting: MCF-7 cells, YTX 1 μM, 24 hr incubation, n=4.

Turning to `C=C1[C@@H](O)[C@@H]2O[C@]3(CC[C@H](/C=C/[C@@H](C)[C@@H]4CC(C)=C[C@@]5(O[C@H](C[C@@](C)(O)C(=O)O)CC[C@H]5O)O4)O3)CC[C@H]2O[C@@H]1[C@@H](O)C[C@H](C)[C@H]1O[C@@]2(CCCCO2)CC[C@H]1C` [OA, okadaic acid], the “concentration above which the pattern characteristic for each group of toxins is maintained when the two groups are present at the same time” value was “higher than 35 nM”. Besides, under setting [1], the “E-cadherin, % of total immunoreactivity” value worked out at 77.6±12.3%; the “ECRA100, % of total immunoreactivity” value came out at 1.8±3.1%; the “ECRA135, % of total immunoreactivity” value stood at 20.6±9.6%; the “relative total immunoreactivity (Σ), % of that in extracts from control cells” value worked out at 15.4±8.7%. The “pattern of E-cadherin and related antigens on immunoblot (FIG. 1)” value (MCF-7 cells) is “appearance of ECRA135”. Besides, for the setting “MCF-7 cells, 20 hr”, the “OA concentration at which ECRA100 levels are minimal” value is given as “higher than 50 nM”, the “OA concentration at which ECRA135 level is maximal” value is given as 75 nM, the “OA concentration at which detection of ECRA135 starts” value fell in the range of 20 to 30 nM and the “OA concentration at which the decrease in immunoreactive material (Σ) can be detected” value is “higher than 10 nM”. Under “MCF-7 cells, 20 hr”, the “OA concentration at which the decrease in immunoreactive material (Σ) is maximal” value is on record as “higher than 75 nM” and the “equivalent OA concentrations within which proportionality in the assay is kept” value is 30 to 75 nM. Besides, the “equivalent OA concentrations within which proportionality in the assay is kept, as mass concentration” value (MCF-7 cells, 20 hr, corresponding to 30-75 nM) is on record as 25-60 ng OA/ml.
`C=CCC(=C)/C=C/[C@@](C)(O)[C@H]1O[C@@H]2C[C@@H]3O[C@@H]4C[C@@H]5O[C@@H]6C[C@@H]7O[C@@H]8C[C@@H]9O[C@@H]%10C[C@@H]%11O[C@](C)(CCOS(=O)(=O)O)[C@@H](OS(=O)(=O)O)C[C@H]%11O[C@H]%10C[C@H]9O[C@H]8CC[C@@]7(C)O[C@@]6(C)CC[C@H](C)[C@H]5O[C@H]4C[C@@]3(C)O[C@H]2CC1=C` [YTX, yessotoxin]: the “concentration above which the pattern characteristic for each group of toxins is maintained when the two groups are present at the same time” value is > 0.4 nM. Where the note is “MCF-7 cells”, the “ECRA135 detection after treatment with YTX alone” value is recorded as “never been detected”; the “pattern of E-cadherin and related antigens on immunoblot (FIG. 1)” value is reported as “most immunoreactivity is associated with the 100 kDa (101.9±3.2 kDa) band”. Under “MCF-7 cells, 20 hr”, the “YTX concentration at which the increase in immunoreactive material (Σ) is detectable” value is on record as “about 0.2 nM” and the “YTX concentration at which the increase in immunoreactive material reaches maximal levels” value is recorded as ≥ 1 nM. For the setting “MCF-7 cells, 20 hr, corresponding to 0.2-0.5 nM”, the “equivalent YTX concentrations within which proportionality in the assay is maintained, as mass concentration” value was 240-600 pg YTX/ml. Besides, the ECRA135 detection result (MCF-7 cells, YTX 1 μM, 24 hr incubation) is “undetectable”. Also, under setting [2], the “E-cadherin, share of total immunoreactivity” value worked out at 52.0±1.7; the “ECRA100, share of total immunoreactivity” value is recorded as 48.0±1.7; the “relative total immunoreactivity (Σ), as compared to controls” value turned out to be 190±32%. Also, where the note is “[YTX] ≧0.5 nME/[DTX] <25 nME”, the “E-cadherin level, percentage of total immunoreactivity (E-cadherin+ECRA100+ECRA135) of the sample” value is 40-60%; the “ECRA100 level, percentage of total immunoreactivity of the sample” value is recorded as 40-60%; the “relative total immunoreactivity (Σ), percentage of total immunoreactivity in the controls” value is listed as 150-250%.
